Data as given in US9993554B2 (CENTRO NACIONAL DE INVESTIGACIONES ONCOLOGICAS (CNIO), priority 2010, dated 2018).

Each molecule was assayed on phospho-Ser-473-Akt (assay: AKT phosphorylation inhibition, Western blot cell assay). Settings: Homo sapiens; cell assay procedure; read-out: IC50 of AKT Phosphorylation Inhibition, p-AKT cell.
Assay type: cell-based
Method: The cell lines were obtained from the American Type Culture Collection (ATCC). U2OS (human osteosarcoma) was cultured in Dulbecco's modified Eagle's medium (DMEM). PC3 (human prostate carcinoma), MCF7 (human breast cardinoma), HCT116 (human colon carcinoma), 768-0 (human neuroblastoma), U251 (human glyoblastoma) were grown in RPMI. All media were supplemented with 10% fetal bovine serum (FBS) (Sigma) and antibiotics-antimycotics. Cell were maintained in a humidified incubator at 37° C. with 5% CO2 and passaged when confluent using trypsin/EDTA.
Subconfluent cells were incubated under different conditions and washed twice with TBS prior to lysis. Lysis buffer was added containing 50 mM Tris HCl, 150 mM NaCl, 1% NP-40, 2 mM Na3VO4, 100 mM NaF, 20 mM Na4P2O7 and protease inhibitor cocktail (Roche Molecular Biochemicals). The proteins were resolved on 10% SDS-PAGE and transferred to nitrocellulose membrane (Schleicher & Schuell, Dassel, Germany). The membranes were incubated overnight at 4° C. with antibodies specific for Akt, phospho-Ser-473-Akt (Cell Signaling Technology) and α-tubulin (Sigma), they were washed and then incubated with IRDye800 conjugated anti-mouse and Alexa Fluor 680 goat anti-rabbit IgG secondary antibodies. The bands were visualized using an Odyssey infrared imaging system (Li-Cor Biosciences).
Molecule `CS(=O)(=O)N1CCN(C(=O)c2cn3cc(-c4cccc5[nH]ncc45)nc(N4CCOCC4)c3n2)CC1` [Compound 2-16] has an IC50 of 0.503 µM.
`CS(=O)(=O)N1CCN(Cc2cn3cc(-c4ccc(N)nc4)nc(N4CCOCC4)c3n2)CC1` [Compound 2-66] showed an IC50 of 0.014 µM.
Molecule `COc1ncc(-c2cn3cc(CN4CCN(S(C)(=O)=O)CC4)nc3c(N3CCOCC3)n2)cn1` [Compound 2-67] has an IC50 of 0.198 µM.
`CS(=O)(=O)N1CCN(Cc2cn3cc(-c4cnc5[nH]ccc5c4)nc(N4CCOCC4)c3n2)CC1` [Compound 2-75] showed an IC50 of 0.077 µM.

These molecules were tested against T1, PI3K (p110α/p85α) (Homo sapiens, UniProt P42336) (assay: PI3K activity assay (ADP Hunter Plus)). Settings: quantitative results, Table 4; read-out: PI3Kα IC50.
T1 construct: purchased Carna Biosciences 07CBS-0402A
T1 sequence (P42336 whole entry): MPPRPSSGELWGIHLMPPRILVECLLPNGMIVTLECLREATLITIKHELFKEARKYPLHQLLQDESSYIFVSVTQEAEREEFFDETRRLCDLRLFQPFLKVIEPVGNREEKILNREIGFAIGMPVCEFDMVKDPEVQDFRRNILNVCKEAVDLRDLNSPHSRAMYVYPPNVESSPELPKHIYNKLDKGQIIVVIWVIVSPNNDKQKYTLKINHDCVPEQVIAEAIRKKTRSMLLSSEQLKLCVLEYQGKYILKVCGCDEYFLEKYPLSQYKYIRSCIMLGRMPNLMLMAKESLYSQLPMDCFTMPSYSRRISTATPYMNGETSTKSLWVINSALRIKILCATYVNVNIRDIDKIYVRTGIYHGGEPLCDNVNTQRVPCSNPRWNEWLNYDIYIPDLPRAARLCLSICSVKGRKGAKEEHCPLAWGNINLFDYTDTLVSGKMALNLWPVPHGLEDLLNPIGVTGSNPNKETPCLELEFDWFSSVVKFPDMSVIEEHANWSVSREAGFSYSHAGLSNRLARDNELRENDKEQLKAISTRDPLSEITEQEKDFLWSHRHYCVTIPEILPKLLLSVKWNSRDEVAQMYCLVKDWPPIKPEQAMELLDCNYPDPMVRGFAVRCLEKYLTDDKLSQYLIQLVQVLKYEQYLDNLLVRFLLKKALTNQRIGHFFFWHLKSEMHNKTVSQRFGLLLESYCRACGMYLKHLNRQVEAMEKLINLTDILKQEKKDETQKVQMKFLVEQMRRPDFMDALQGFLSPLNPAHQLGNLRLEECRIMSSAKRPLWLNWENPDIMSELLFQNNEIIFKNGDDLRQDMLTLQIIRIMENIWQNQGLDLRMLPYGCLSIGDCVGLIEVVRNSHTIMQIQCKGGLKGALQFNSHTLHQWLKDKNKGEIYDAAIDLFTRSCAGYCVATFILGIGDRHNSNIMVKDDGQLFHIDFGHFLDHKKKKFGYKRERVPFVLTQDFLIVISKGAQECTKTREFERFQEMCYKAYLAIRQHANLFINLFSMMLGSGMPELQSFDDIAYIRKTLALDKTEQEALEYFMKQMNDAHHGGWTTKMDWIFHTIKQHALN
T1 sequence (P27986 whole entry partner): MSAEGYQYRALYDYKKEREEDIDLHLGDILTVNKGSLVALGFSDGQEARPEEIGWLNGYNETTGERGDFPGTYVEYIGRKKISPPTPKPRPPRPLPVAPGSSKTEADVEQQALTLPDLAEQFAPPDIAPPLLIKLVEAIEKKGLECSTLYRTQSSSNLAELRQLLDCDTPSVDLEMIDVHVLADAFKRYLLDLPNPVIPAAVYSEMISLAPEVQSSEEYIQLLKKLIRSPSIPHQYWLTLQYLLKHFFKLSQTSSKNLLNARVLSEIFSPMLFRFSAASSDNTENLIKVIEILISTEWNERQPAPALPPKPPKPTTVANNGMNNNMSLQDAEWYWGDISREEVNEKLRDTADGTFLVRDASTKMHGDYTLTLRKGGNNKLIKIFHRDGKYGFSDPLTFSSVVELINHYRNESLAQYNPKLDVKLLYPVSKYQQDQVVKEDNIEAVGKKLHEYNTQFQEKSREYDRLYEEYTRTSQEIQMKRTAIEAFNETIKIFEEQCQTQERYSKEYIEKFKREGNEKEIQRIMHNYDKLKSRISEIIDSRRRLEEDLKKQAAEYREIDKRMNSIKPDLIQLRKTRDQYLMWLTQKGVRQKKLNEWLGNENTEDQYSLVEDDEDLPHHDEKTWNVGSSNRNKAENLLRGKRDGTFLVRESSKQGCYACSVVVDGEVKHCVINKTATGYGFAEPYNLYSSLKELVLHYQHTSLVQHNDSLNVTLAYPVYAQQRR
Assay type: biochemical
Method: The kinase activity was measured by using the commercial ADP Hunter™ Plus assay available from DiscoveRx (#33-016), which is a homogeneous assay to measure the accumulation of ADP, a universal product of kinase activity. […] Reaction was carried out for 1 hour at 25° C. Reagent A and B were sequentially added to the wells and plates were incubated for 30 min at 37° C. […] Values were normalized against the control activity included for each enzyme (i.e., 100% PI3 kinase activity, without compound). These values were plot against the inhibitor concentration and were fit to a sigmoid dose-response curve by using the Graphad software.
For `CS(=O)(=O)N1CCN(Cc2cn3cc(-c4ccc5[nH]ncc5c4)nc(N4CCOCC4)c3n2)CC1` [Compound 2-127], the IC50 was 37 µM.
In the case of `CS(=O)(=O)N1CC2(CCN(Cc3cn4cc(-c5cccc6[nH]ncc56)nc(N5CCOCC5)c4n3)CC2)C1` [Compound 2-145], the IC50 is reported as 3 µM.

Same assay, conditions: quantitative results; read-out: PI3Kα IC50
In the case of `Cc1cn2cc(-c3ccc4cc[nH]c4c3)nc(N3CCOCC3)c2n1` [Compound 2-25], the IC50 is reported as 10 µM.
Molecule `Cc1cn2cc(-c3cccc(NS(C)(=O)=O)c3)nc(N3CCOCC3)c2n1` [Compound 2-28] has an IC50 of 50 µM.
Work on `COc1ccc(-c2cn3cc(CN4CCN(S(C)(=O)=O)CC4)nc3c(N3CCOCC3)n2)cn1` [Compound 2-61] yielded an IC50 of 4.5 µM.
For `CS(=O)(=O)N1CCN(Cc2cn3cc(-c4ccc(N)nc4)nc(N4CCOCC4)c3n2)CC1` [Compound 2-66], the IC50 was 0.169 µM.
Molecule `CS(=O)(=O)N1CCN(Cc2cn3cc(-c4ccc(C(N)=O)cc4)nc(N4CCOCC4)c3n2)CC1` [Compound 2-68] has an IC50 of 11 µM.
Work on `CS(=O)(=O)N1CCN(Cc2cn3cc(-c4cnc5[nH]ccc5c4)nc(N4CCOCC4)c3n2)CC1` [Compound 2-75] yielded an IC50 of 0.113 µM.
For `CNC(=O)Nc1ccc(-c2cn3cc(CN4CCN(S(C)(=O)=O)CC4)nc3c(N3CCOCC3)n2)cc1` [Compound 2-82], the IC50 was 0.158 µM.
Molecule `CS(=O)(=O)N1C2CCC1CN(Cc1cn3cc(-c4cnc(N)nc4)nc(N4CCOCC4)c3n1)C2` [Compound 2-228] has an IC50 of 0.108 µM.

Same assay, conditions: semi-quantitative results; read-out: PI3Kα IC50 (semi-quantitative class)
In the case of `CS(=O)(=O)N1CCN(C(=O)c2cn3cc(-c4cccc5[nH]ncc45)nc(N4CCOCC4)c3n2)CC1` [Compound 2-16], the IC50 is reported as 0.1 to 1 µM.
For `O=C(c1cn2cc(-c3cccc4[nH]ncc34)nc(N3CCOCC3)c2n1)N1CCNCC1` [Compound 2-18], the IC50 was 0.1 to 1 µM.
`CN1CCN(c2cnc3c(N4CCOCC4)nc(-c4cccc(O)c4)cn23)CC1` [Compound 2-37] showed an IC50 of 0.1 to 1 µM.
`CN1CCN(c2cnc3c(N4CCOCC4)nc(-c4cccc5[nH]ncc45)cn23)CC1` [Compound 2-38] gave an IC50 of 0.1 to 1 µM.
`CS(=O)(=O)N1CCN(c2cnc3c(N4CCOCC4)nc(-c4cccc(O)c4)cn23)CC1` [Compound 2-39] gave an IC50 of 0.1 to 1 µM.
For `Oc1cccc(-c2cn3c(N4CCNCC4)cnc3c(N3CCOCC3)n2)c1` [Compound 2-40], the IC50 was 0.1 to 1 µM.
`CS(=O)(=O)N1CCN(c2cnc3c(N4CCOCC4)nc(-c4cccc5[nH]ncc45)cn23)CC1` [Compound 2-41] gave an IC50 of 0.1 to 1 µM.
`Cc1cn2c(Cl)c(-c3cccc(O)c3)nc(N3CCOCC3)c2n1` [Compound 2-49] showed an IC50 of 0.1 to 1 µM.
`Cc1nc2c(N3CCOCC3)nc(-c3cccc4[nH]ncc34)cn2c1C1CCN(C)CC1` [Compound 2-58] gave an IC50 of 0.1 to 1 µM.
For `CS(=O)(=O)N1CCN(Cc2cn3c(Cl)c(-c4cccc5[nH]ncc45)nc(N4CCOCC4)c3n2)CC1` [Compound 2-60], the IC50 was 0.1 to 1 µM.
For `COc1cncc(-c2cn3cc(CN4CCN(S(C)(=O)=O)CC4)nc3c(N3CCOCC3)n2)c1` [Compound 2-65], the IC50 was greater than 1 µM.
With `COc1ncc(-c2cn3cc(CN4CCN(S(C)(=O)=O)CC4)nc3c(N3CCOCC3)n2)cn1` [Compound 2-67] the IC50 was 0.1 to 1 µM.
